Measurements as given in ChEMBL document CHEMBL2346657, “Synthesis of novel 2-amino-4-(5'-substituted 2'-phenyl-1H-indol-3'-yl)-6-aryl-4H-pyran-3-carbonitrile derivatives as antimicrobial and antioxidant agents” (2013).
Activity calls are given as the source filed them.

Assays:
Type in all cases: functional
[1] = Antioxidant activity assessed as metal chelating activity by measuring inhibition of ferrozine-Fe2+ complex formation at 25 to 100 ug/ml
[2] = test system: Radical scavenging activity; assay: Antioxidant activity assessed as DPPH radical scavenging activity at 100 ug/ml
[3] = test system: Aspergillus flavus; assay: Antimicrobial activity against Aspergillus flavus MTCC 1973 at 500 ug/ml after 72 hrs by cup plate method; settings: MTCC 1973, 72 h, read-out: IZ
[4] = test system: Aspergillus flavus; assay: Antimicrobial activity against Aspergillus flavus MTCC 1973 at 750 ug/ml after 72 hrs by cup plate method; settings: MTCC 1973, 72 h, read-out: IZ
[5] = test system: Aspergillus flavus; assay: Antimicrobial activity against Aspergillus flavus MTCC 1973 at 1000 ug/ml after 72 hrs by cup plate method; settings: MTCC 1973, 72 h, read-out: IZ
[6] = test system: Aspergillus oryzae; assay: Antimicrobial activity against Aspergillus oryzae MTCC 3567 at 500 ug/ml after 72 hrs by cup plate method; settings: MTCC 3567, 72 h, read-out: IZ
[7] = test system: Aspergillus oryzae; assay: Antimicrobial activity against Aspergillus oryzae MTCC 3567 at 750 ug/ml after 72 hrs by cup plate method; settings: MTCC 3567, 72 h, read-out: IZ
[8] = test system: Aspergillus oryzae; assay: Antimicrobial activity against Aspergillus oryzae MTCC 3567 at 1000 ug/ml after 72 hrs by cup plate method; settings: MTCC 3567, 72 h, read-out: IZ
[9] = test system: Aspergillus niger; assay: Antimicrobial activity against Aspergillus niger MTCC 281 at 500 ug/ml after 72 hrs by cup plate method; settings: MTCC 281, 72 h, read-out: IZ
[10] = test system: Aspergillus niger; assay: Antimicrobial activity against Aspergillus niger MTCC 281 at 750 ug/ml after 72 hrs by cup plate method; settings: MTCC 281, 72 h, read-out: IZ
[11] = test system: Aspergillus niger; assay: Antimicrobial activity against Aspergillus niger MTCC 281 at 1000 ug/ml after 72 hrs by cup plate method; settings: MTCC 281, 72 h, read-out: IZ
[12] = test system: Pseudomonas aeruginosa; assay: Antimicrobial activity against Pseudomonas aeruginosa MTCC 1688 at 500 ug/ml after 24 hrs by cup plate method; settings: MTCC 1688, 24 h, read-out: IZ
[13] = test system: Pseudomonas aeruginosa; assay: Antimicrobial activity against Pseudomonas aeruginosa MTCC 1688 at 750 ug/ml after 24 hrs by cup plate method; settings: MTCC 1688, 24 h, read-out: IZ
[14] = test system: Pseudomonas aeruginosa; assay: Antimicrobial activity against Pseudomonas aeruginosa MTCC 1688 at 1000 ug/ml after 24 hrs by cup plate method; settings: MTCC 1688, 24 h, read-out: IZ
[15] = test system: Klebsiella pneumoniae; assay: Antimicrobial activity against Klebsiella pneumoniae NCTC 13368 at 500 ug/ml after 24 hrs by cup plate method; settings: NCTC 13368, 24 h, read-out: IZ
[16] = test system: Klebsiella pneumoniae; assay: Antimicrobial activity against Klebsiella pneumoniae NCTC 13368 at 750 ug/ml after 24 hrs by cup plate method; settings: NCTC 13368, 24 h, read-out: IZ
[17] = test system: Klebsiella pneumoniae; assay: Antimicrobial activity against Klebsiella pneumoniae NCTC 13368 at 1000 ug/ml after 24 hrs by cup plate method; settings: NCTC 13368, 24 h, read-out: IZ
[18] = test system: Staphylococcus aureus; assay: Antimicrobial activity against Staphylococcus aureus ATCC 29513 at 500 ug/ml after 24 hrs by cup plate method; settings: ATCC 29513, 24 h, read-out: IZ
[19] = test system: Staphylococcus aureus; assay: Antimicrobial activity against Staphylococcus aureus ATCC 29513 at 750 ug/ml after 24 hrs by cup plate method; settings: ATCC 29513, 24 h, read-out: IZ
[20] = test system: Staphylococcus aureus; assay: Antimicrobial activity against Staphylococcus aureus ATCC 29513 at 1000 ug/ml after 24 hrs by cup plate method; settings: ATCC 29513, 24 h, read-out: IZ
[21] = test system: Escherichia coli; assay: Antimicrobial activity against Escherichia coli MTCC 723 at 500 ug/ml after 24 hrs by cup plate method; settings: MTCC 723, 24 h, read-out: IZ
[22] = test system: Escherichia coli; assay: Antimicrobial activity against Escherichia coli MTCC 723 at 750 ug/ml after 24 hrs by cup plate method; settings: MTCC 723, 24 h, read-out: IZ
[23] = test system: Escherichia coli; assay: Antimicrobial activity against Escherichia coli MTCC 723 at 1000 ug/ml after 24 hrs by cup plate method; settings: MTCC 723, 24 h, read-out: IZ
[24] = test system: Aspergillus terreus; assay: Antimicrobial activity against Aspergillus terreus MTCC 1782 at 500 ug/ml after 72 hrs by cup plate method; settings: MTCC 1782, 72 h, read-out: IZ
[25] = test system: Aspergillus terreus; assay: Antimicrobial activity against Aspergillus terreus MTCC 1782 at 750 ug/ml after 72 hrs by cup plate method; settings: MTCC 1782, 72 h, read-out: IZ
[26] = test system: Aspergillus terreus; assay: Antimicrobial activity against Aspergillus terreus MTCC 1782 at 1000 ug/ml after 72 hrs by cup plate method; settings: MTCC 1782, 72 h, read-out: IZ

Row | SMILES | Activity [1] | zone of inhibition at 500 µg/mL [3] | zone of inhibition at 750 µg/mL [4] | zone of inhibition at 1000 µg/mL [5] | zone of inhibition at 500 µg/mL [6] | zone of inhibition at 750 µg/mL [7] | zone of inhibition at 1000 µg/mL [8] | zone of inhibition at 500 µg/mL [9] | zone of inhibition at 750 µg/mL [10] | zone of inhibition at 1000 µg/mL [11] | zone of inhibition at 500 µg/mL [12] | zone of inhibition at 750 µg/mL [13] | zone of inhibition at 1000 µg/mL [14] | zone of inhibition at 500 µg/mL [15] | zone of inhibition at 750 µg/mL [16] | zone of inhibition at 1000 µg/mL [17] | zone of inhibition at 500 µg/mL [18] | zone of inhibition at 750 µg/mL [19] | zone of inhibition at 1000 µg/mL [20] | zone of inhibition at 500 µg/mL [21] | other results
1 | N#CC1=C(N)OC(c2ccc(Cl)cc2)=CC1c1c(-c2ccccc2)[nH]c2ccc(Cl)cc12 (stereo not drawn) | Active | 12 mm | 12 mm | 13 mm | 10 mm | 10 mm | 9 mm | 10 mm | 10 mm | 10 mm | 10 mm | 10 mm | 10 mm | 10 mm | 10 mm | 10 mm | 13 mm | 13 mm | 13 mm | 13 mm | Activity [2]: Active; zone of inhibition at 750 µg/mL [22]: 13 mm; zone of inhibition at 1000 µg/mL [23]: 14 mm
2 | Nc1nc(=O)[nH]c2c1C(c1c(-c3ccccc3)[nH]c3ccccc13)C=C(c1ccccc1)O2 (stereo not drawn) | Active | 10 mm | 9 mm | 9 mm | 10 mm | 10 mm | 10 mm | 5 mm | 5 mm | 3 mm | 12 mm | 12 mm | 13 mm | 10 mm | 10 mm | 10 mm | 10 mm | 10 mm | 5 mm | 10 mm | zone of inhibition at 500 µg/mL [24]: 6 mm; zone of inhibition at 750 µg/mL [25]: 4 mm; zone of inhibition at 1000 µg/mL [26]: 3 mm; zone of inhibition at 750 µg/mL [22]: 8 mm; zone of inhibition at 1000 µg/mL [23]: 5 mm
3 | Cc1ccc(C2=CC(c3c(-c4ccccc4)[nH]c4ccc(C)cc34)c3c(N)nc(=S)[nH]c3O2)cc1 (stereo not drawn) | Active | 9 mm | 8 mm | 9 mm | 5 mm | 5 mm | 5 mm | 0 mm | 0 mm | 0 mm | 6 mm | 5 mm | 5 mm | 6 mm | 5 mm | 5 mm | 0 mm | 0 mm | 0 mm | 5 mm | zone of inhibition at 500 µg/mL [24]: 5 mm; zone of inhibition at 750 µg/mL [25]: 5 mm; zone of inhibition at 1000 µg/mL [26]: 5 mm; zone of inhibition at 750 µg/mL [22]: 4 mm; zone of inhibition at 1000 µg/mL [23]: 4 mm
4 | Cc1ccc2[nH]c(-c3ccccc3)c(C3C=C(c4ccccc4)Oc4[nH]c(=S)nc(N)c43)c2c1 (stereo not drawn) | Active | 9 mm | 6 mm | 5 mm | 3 mm | 3 mm | 3 mm | 4 mm | 3 mm | 8 mm | 9 mm | 8 mm | 8 mm | 5 mm | 4 mm | 4 mm | 10 mm | 9 mm | 9 mm | 8 mm | zone of inhibition at 500 µg/mL [24]: 9 mm; zone of inhibition at 750 µg/mL [25]: 8 mm; zone of inhibition at 1000 µg/mL [26]: 8 mm; zone of inhibition at 750 µg/mL [22]: 8 mm; zone of inhibition at 1000 µg/mL [23]: 8 mm
5 | Cc1ccc(C2=CC(c3c(-c4ccccc4)[nH]c4ccc(C)cc34)c3c(N)nc(=O)[nH]c3O2)cc1 (stereo not drawn) | Active | 2 mm | 2 mm | 2 mm | 0 mm | 0 mm | 0 mm | 10 mm | 10 mm | 10 mm | 10 mm | 10 mm | 10 mm | 10 mm | 10 mm | 10 mm | 8 mm | 5 mm | 2 mm | 13 mm | zone of inhibition at 500 µg/mL [24]: 9 mm; zone of inhibition at 750 µg/mL [25]: 9 mm; zone of inhibition at 1000 µg/mL [26]: 9 mm; zone of inhibition at 750 µg/mL [22]: 13 mm; zone of inhibition at 1000 µg/mL [23]: 14 mm
6 | O=c1[nH]cnc2c1C(c1c(-c3ccccc3)[nH]c3ccc(Cl)cc13)C=C(c1ccccc1)O2 (stereo not drawn) | Active | 12 mm | 12 mm | 13 mm | 12 mm | 13 mm | 13 mm | 7 mm | 7 mm | 7 mm | 3 mm | 3 mm | 3 mm | 9 mm | 9 mm | 9 mm | 12 mm | 12 mm | 12 mm | 10 mm | zone of inhibition at 500 µg/mL [24]: 10 mm; zone of inhibition at 750 µg/mL [25]: 10 mm; zone of inhibition at 1000 µg/mL [26]: 9 mm; zone of inhibition at 750 µg/mL [22]: 10 mm; zone of inhibition at 1000 µg/mL [23]: 11 mm
7 | O=c1[nH]cnc2c1C(c1c(-c3ccccc3)[nH]c3ccccc13)C=C(c1ccccc1)O2 (stereo not drawn) | Active | 9 mm | 9 mm | 9 mm | 5 mm | 5 mm | 5 mm | 6 mm | 6 mm | 5 mm | 5 mm | 4 mm | 4 mm | 11 mm | 10 mm | 10 mm | 10 mm | 10 mm | 10 mm | 8 mm | zone of inhibition at 500 µg/mL [24]: 9 mm; zone of inhibition at 750 µg/mL [25]: 8 mm; zone of inhibition at 1000 µg/mL [26]: 8 mm; zone of inhibition at 750 µg/mL [22]: 6 mm; zone of inhibition at 1000 µg/mL [23]: 6 mm
8 | Cc1ccc(C2=CC(c3c(-c4ccccc4)[nH]c4ccc(C)cc34)c3c(nc[nH]c3=O)O2)cc1 (stereo not drawn) | Active | 10 mm | 9 mm | 9 mm | 3 mm | 3 mm | 3 mm | 3 mm | 3 mm | 3 mm | 8 mm | 8 mm | 8 mm | 8 mm | 8 mm | 8 mm | 2 mm | 2 mm | 2 mm | 2 mm | zone of inhibition at 500 µg/mL [24]: 9 mm; zone of inhibition at 750 µg/mL [25]: 9 mm; zone of inhibition at 1000 µg/mL [26]: 9 mm; zone of inhibition at 750 µg/mL [22]: 2 mm; zone of inhibition at 1000 µg/mL [23]: 2 mm
